Test results as given in doi:10.1101/2025.11.02.686125v3 (bioRxiv, 2025).
Values after ≈ are worked out from the molar mass of the structure shown. Like-named read-outs stand apart in the source and are kept apart here. Where a SMILES comes first, the peptide text is derived from it. Bridges are numbered along the chain shown (N, C = ends). [ ]: non-standard residue; d: D form. The star is where a group is joined. NMeT = CN[C@H](C(=O)O)[C@@H](C)O; dNMeL = CN[C@H](CC(C)C)C(=O)O; NMeV = CN[C@H](C(=O)O)C(C)C; X1 = COC(=O)[C@H](N)CS*; X2 = N[C@H](CS*)C(=O)O

Experiments:
[1] = system: Msm (luc) cells
[2] = system: Mav strain MAH11; conditions: 40 h
[3] = system: Mtb strain mc^26206

In the case of `O=C(O)[C@H]1CSC(c2nc3ccc(O)cc3s2)=N1` [D-luciferin], the “Luminescence after benzyl alcohol pretreatment” value [1] is reported as “modestly reduced the accumulation” and the “Luminescence after spermidine pretreatment” value [1] is reported as “significant loss of signal”.
In the case of `CC(=O)N[C@@H](CSSC[C@@H](N)C(=O)O)C(=O)N(C)[C@H](C(=O)N1CCC[C@H]1C(=O)N(C)[C@@H]1C(=O)N[C@@H](CC(C)C)C(=O)N2CCC[C@H]2C(=O)N[C@@H](CC(C)C)C(=O)N(C)[C@@H](C(C)C)C(=O)N2CCC[C@H]2C(=O)N(C)[C@H](CC(C)C)C(=O)NCC(=O)O[C@@H]1C)C(C)C` [cys-GM] (Ac-C(X2)[NMeV]P[NMeT]LPL[NMeV]P[dNMeL]G; ester 4-C), the “MIC Mav” value [2] is reported as greater than 32 µM and the “MIC Mtb” value ([3]; strain mc^26206, 40 h) is reported as greater than 32 µM.
For `COC(=O)[C@H](N)CSSC[C@H](NC(C)=O)C(=O)N(C)[C@H](C(=O)N1CCC[C@H]1C(=O)N(C)[C@@H]1C(=O)N[C@@H](CC(C)C)C(=O)N2CCC[C@H]2C(=O)N[C@@H](CC(C)C)C(=O)N(C)[C@@H](C(C)C)C(=O)N2CCC[C@H]2C(=O)N(C)[C@H](CC(C)C)C(=O)NCC(=O)O[C@@H]1C)C(C)C` [cys-ME-GM] (Ac-C(X1)[NMeV]P[NMeT]LPL[NMeV]P[dNMeL]G; ester 4-C), the “MIC Mav” value [2] was 4 µM (≈ 5.29 µg/mL) and the “MIC Mtb” value [3] was 2 µM (≈ 2.64 µg/mL).
